US20240270821A1, “GIP/GLP1/GCG TRI-RECEPTOR AGONISTS AND USES THEREOF” (priority 2023, published 2024)
Starred links: 1 amine or outer side, 2 acyl side, 3 side chain; linkers in the order of their positions; H or OH if unused. Non-standard residues stand in square brackets, D forms with d. Groups on a side chain read outwards from the residue. *: point of attachment. C20 diacid = O=C(O)CCCCCCCCCCCCCCCCCCC(=O)*; C18 diacid = O=C(O)CCCCCCCCCCCCCCCCC(=O)*; γGlu = O=C(O)[C@H](CCC(=O)[*:2])N[*:1]; αMe4Pal = C[C@](N)(Cc1ccncc1)C(=O)O; 4Pal = N[C@@H](Cc1ccncc1)C(=O)O; αMeL = CC(C)C[C@](C)(N)C(=O)O; Orn = NCCC[C@H](N)C(=O)O; AEEA = NCCOCCOCC(=O)O; Aib = CC(C)(N)C(=O)O

Tests used:
Assay type in all cases: cell-based
hGIPR [1] = target: T1, hGIPR (Homo sapiens, UniProt P48546); assay: Functional cAMP activity in the presence of 1% HSA; conditions: read-out: cAMP Rel EC50, hGIPR
T1 sequence (P48546 22-466): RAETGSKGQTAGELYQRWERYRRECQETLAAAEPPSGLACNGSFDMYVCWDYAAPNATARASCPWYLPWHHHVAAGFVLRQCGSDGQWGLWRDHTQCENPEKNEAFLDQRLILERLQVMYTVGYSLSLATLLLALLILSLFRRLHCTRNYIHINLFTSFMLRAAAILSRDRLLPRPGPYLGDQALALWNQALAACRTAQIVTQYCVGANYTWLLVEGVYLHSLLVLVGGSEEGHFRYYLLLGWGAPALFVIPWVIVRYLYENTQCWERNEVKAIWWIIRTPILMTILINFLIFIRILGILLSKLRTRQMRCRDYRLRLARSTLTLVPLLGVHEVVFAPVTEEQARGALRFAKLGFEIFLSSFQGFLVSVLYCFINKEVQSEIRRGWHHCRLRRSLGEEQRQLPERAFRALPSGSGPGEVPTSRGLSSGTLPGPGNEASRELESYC

hGLP-1R [2] = target: T2, hGLP-1R (Homo sapiens, UniProt P43220); assay: Functional cAMP activity in the presence of 1% HSA; conditions: read-out: cAMP Rel EC50, hGLP-1R
human GcgR = human GcgR (Homo sapiens, UniProt P47871); assay: Functional cAMP activity in the presence of 1% HSA; conditions: read-out: cAMP Rel EC50, hGcgR
hGIPR [3] = target: T1, hGIPR; assay: Functional cAMP activation in the presence of 0.1% casein (no HSA); conditions: in the presence of 0.1% casein (no HSA); geometric mean; read-out: Relative cAMP EC50, hGIPR;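 on Relative cAMP EC50, hGIPR: intracellular cAMP rise after 30 min at 37 °C read by HTRF against a standard curve, scaled between buffer alone (0%) and top control ligand concentration (100%), four-parameter fit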;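 on Relative cAMP EC50, hGLP-1R: intracellular cAMP rise after 30 min at 37 °C read by HTRF, normalized between buffer only (0%) and maximal control ligand (100%), four-parameter variable-slope fit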;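 on Relative cAMP EC50, hGcgR: intracellular cAMP rise after 30 min at 37 °C, read by HTRF against a cAMP standard curve, scaled from buffer only (0%) to maximal control ligand response (100%)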
hGLP-1R [4] = target: T2, hGLP-1R; assay: as above; conditions: in the presence of 0.1% casein (no HSA); geometric mean; read-out: Relative cAMP EC50, hGLP-1R
hGcgR = hGcgR (Homo sapiens, UniProt P47871); assay: as above; conditions: in the presence of 0.1% casein (no HSA); geometric mean; read-out: Relative cAMP EC50, hGcgR;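 further: intracellular cAMP rise after 30 min at 37 °C, read by HTRF against a cAMP standard curve, scaled from buffer only (0%) to maximal control ligand response (100%)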
human GLP1-R = human GLP1-R (Homo sapiens, UniProt P43220); assay: GLP1-R internalization assay in HEK293 cells; conditions: for EC50: HEK293 cells expressing SNAP-GLP-1R, read-out: GLP1R Internalization EC50; for Internalization % TOP: normalized to maximum concentration of GLP-1 (100%)
Sequence of human GLP1-R (P43220 24-463): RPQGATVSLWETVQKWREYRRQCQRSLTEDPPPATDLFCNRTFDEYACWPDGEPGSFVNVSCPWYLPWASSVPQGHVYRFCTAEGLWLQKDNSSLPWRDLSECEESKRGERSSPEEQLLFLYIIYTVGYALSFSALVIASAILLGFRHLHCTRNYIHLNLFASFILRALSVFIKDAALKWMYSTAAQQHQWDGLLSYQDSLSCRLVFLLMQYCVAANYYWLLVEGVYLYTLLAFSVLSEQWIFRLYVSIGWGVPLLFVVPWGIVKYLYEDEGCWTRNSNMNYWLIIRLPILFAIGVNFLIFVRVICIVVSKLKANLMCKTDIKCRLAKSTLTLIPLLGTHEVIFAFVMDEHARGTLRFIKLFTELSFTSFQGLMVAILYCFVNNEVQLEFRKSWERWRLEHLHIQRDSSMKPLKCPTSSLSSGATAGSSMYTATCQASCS

T2 sequence (P43220 24-463): as above
Sequence of hGcgR (P47871 26-477): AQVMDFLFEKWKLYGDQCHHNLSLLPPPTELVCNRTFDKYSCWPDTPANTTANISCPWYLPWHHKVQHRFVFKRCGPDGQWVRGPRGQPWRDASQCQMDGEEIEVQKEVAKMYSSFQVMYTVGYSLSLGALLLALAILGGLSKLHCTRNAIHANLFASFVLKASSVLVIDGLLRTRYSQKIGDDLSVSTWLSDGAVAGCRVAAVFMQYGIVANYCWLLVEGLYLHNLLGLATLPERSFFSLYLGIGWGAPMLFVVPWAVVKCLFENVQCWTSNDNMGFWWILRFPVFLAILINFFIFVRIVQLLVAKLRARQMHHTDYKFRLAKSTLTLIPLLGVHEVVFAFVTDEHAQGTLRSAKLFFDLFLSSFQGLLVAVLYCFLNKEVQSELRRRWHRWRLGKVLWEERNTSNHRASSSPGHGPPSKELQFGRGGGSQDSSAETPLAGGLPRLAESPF
Sequence of human GcgR (P47871 26-477): as above

Substance	EC50 (hGIPR [1])	EC50 (hGLP-1R [2])	EC50 (human GcgR)	EC50 (hGIPR [3])	EC50 (hGLP-1R [4])	EC50 (hGcgR)	EC50 (human GLP1-R)	Internalization % TOP (human GLP1-R)
H-Y[Aib]QGTFTSDFS[Orn][αMeL]LDKK([AEEA-AEEA-γGlu-C18 diacid])AQ[Aib]AFIEYLLE[dA]GPSSGHPPPSG[4Pal]-NH2 [Example 256]	17.4 nM	235 nM	625 nM	0.176 nM	2.87 nM	5.71 nM	87.8 nM	43.5%
H-Y[Aib]QGTFTSDFS[Orn][αMeL]LDKK([AEEA-AEEA-γGlu-C18 diacid])AQ[Aib]AFIEYLLEGGPSSGAPPPGES-NH2 [Example 118]	63.4 nM	1450 nM	2460 nM	0.43 nM	6.03 nM	7.02 nM	82.3 nM	46.4%
H-Y[Aib]QGTFTSD[4Pal]S[Orn][αMeL]LDKK([AEEA-γGlu-C18 diacid])AQ[αMe4Pal]AFIEYLIE[Aib]GESSGAPPPSGE-NH2 [Example 222]	52.5 nM	753 nM	440 nM	0.228 nM	3.64 nM	2.33 nM	34.6 nM	52.4%
H-Y[Aib]QGTFTSDFSK[αMeL]LDKK([AEEA-γGlu-C20 diacid])AQ[Aib]AFIEYLLE[Aib]GPSSGAPPPSGS-NH2 [Example 45]	33.4 nM	493 nM	879 nM	0.112 nM	1.52 nM	2.08 nM	52.6 nM	62.1%
H-Y[Aib]QGTFTSDFS[Orn][αMeL]LDKK([AEEA-γGlu-C18 diacid])AQ[Aib]AFIEYLIE[Aib]GESSGAPPPSGS-NH2 [Example 218]	15 nM	152 nM	1480 nM	0.0853 nM	0.76 nM	7.89 nM	80.5 nM	35%
H-Y[Aib]QGTFTSDFS[Orn][αMeL]LDKK([AEEA-AEEA-γGlu-C18 diacid])AQ[Aib]AFIEYLLE[Aib]G[4Pal]SSGAPPPSGS-NH2 [Example 183]	13.7 nM	295 nM	504 nM	0.0759 nM	5.03 nM	3.83 nM	100 nM	45.4%
H-Y[Aib]QGTFTSDFS[Orn][αMeL]LDKK([AEEA-AEEA-γGlu-C18 diacid])AQ[Aib]AFIEYLLE[Aib]GPSSGAPPPSGE-NH2 [Example 111]	10.4 nM	878 nM	1260 nM	0.0888 nM	5.06 nM	4.25 nM	49.1 nM	46.4%
H-Y[Aib]QGTFTSDFSK[αMeL]LDKK([AEEA-γGlu-C20 diacid])AQ[Aib]AFIEYLLAGGPSSGAPPPGGE-NH2 [Example 15]	36.3 nM	276 nM	1980 nM	0.201 nM	1.77 nM	11.1 nM	79 nM	74.9%
H-Y[Aib]QGTFTSDFSK[αMeL]LDKK([AEEA-AEEA-γGlu-C20 diacid])AQ[Aib]AFIEYLLEGGPSSGAPPPGEG-NH2 [Example 17]	91.7 nM	543 nM	2040 nM	0.317 nM	2.96 nM	8.33 nM	66.2 nM	72.2%
